Data on five compounds can be found in paper PMC2533715, “Suppressive Effects of Selected Food Phytochemicals on CD74 Expression in NCI-N87 Gastric Carcinoma Cells” (Journal of Clinical Biochemistry and Nutrition, 2008).

The nature of data set [1]: Cell viability (MTT). The settings on record: human.
Data set [2] deals with H. pylori urease. Details: method as in PMID 14550260. The settings on record: in vitro; cited from earlier work.
The test system of data set [3] is CD74. The experiment in a line: Cell-based ELISA for constitutive CD74 expression. Also noted: species or system human. The settings on record: 48 h, NCI-N87 cells; for IR (%) inhibition rate of CD74 expression: mean ± average deviation; for IC50: mean of duplicate experiments, unit printed in b25 only, read-out: IC50 (50% inhibitory concentration) for constitutive CD74 expression. (In general: An ELISA detects its analyte on a solid surface through an enzyme-linked reagent.)

Data set [4] concerns H. pylori-induced gastritis. Details: method as in PMID 14550260. The settings on record: Mongolian gerbils; cited from earlier work.
In data set [5] the test system is NCI-N87 gastric carcinoma cells. Description: Cell viability (MTT). The settings on record: NCI-N87 cells, 48 h.
Data set [6] deals with skin tumors. Also noted: method as in PMID 9276625. The settings on record: mice; cited from earlier work.
The test system of data set [7] is CYP1A1. Also noted: method as in PMID 15670584. The settings on record: cited from earlier work.
Data set [8] deals with NO generation. Details: method as in PMID 10563895. The settings on record: cited from earlier work.
Data set [9] concerns MCF-7 cells. Also noted: method as in PMID 12641443. The settings on record: induced by benzo[a]pyrene and 7,12-dimethylbenz[a]anthracene; cited from earlier work.
Data set [10] has as its system leukemia differentiation. Details: method as in PMID 10552768. The settings on record: cited from earlier work.
Data set [11] has as its system cytochrome P450 (CYP) 3A4. Also noted: method as in PMID 9548795. The settings on record: cited from earlier work.
The subject of data set [12] is NF-κB. Details: method as in PMID 12106602. The settings on record: MKN45 gastric carcinoma cells co-cultured with H. pylori; cited from earlier work.
In data set [13] the test system is NF-κB. Also noted: method as in PMID 15589482, PMID 16317159, PMID 9521814, PMID 17420607. The settings on record: several cell lines; cited from earlier work.
The test system of data set [14] is H. pylori-infected human gastric mucosal cells. Details: method as in PMID 17028789. The settings on record: cited from earlier work.
The mark [15] stands for this setting: NCI-N87 gastric carcinoma cells.

The structures appear in SMILES notation.

As for `O=C(OC1Cc2c(O)cc(O)cc2OC1c1cc(O)c(O)c(O)c1)c1cc(O)c(O)c(O)c1` (single isomer, unassigned; (-)) [EGCG, (−)-epigallocatechin-3-gallate], the CC50 (as a rule, the concentration giving 50% cytotoxicity) at 48 h in data set [1] is over 100 µM. Moreover, in data set [1] (setting [15]), the viability (in general, a per cent measure of how many cells are alive, often set against a control) at 48 h, 4 µM stood at 78 ± 6.3%; the viability at 48 h, 20 µM worked out at 77 ± 3.1%; the viability at 48 h, 100 µM was determined as 78 ± 5%. Further, the “H. pylori urease activity” value in [2] is “strongly inhibited”. The “IR (%) inhibition rate of CD74 expression” value (shortened to “IR (%) inhibition rate”) in [3] (4 µM) is listed as −110 ± 8.3%. Also, in data set [3] (20 µM), the “IR (%) inhibition rate” value is reported as −149 ± 3.8%. For the same compound, the “IR (%) inhibition rate” value in [3] (100 µM) was −217 ± 4.0%. Moreover, in [3], the “Suppression of CD74 expression (in words)” value (from here on “Suppression”) is reported as “did not suppress CD74 expression, but rather enhanced it” and the IC50 was over 100 µM. For the same compound, the H. pylori-induced gastritis result in data set [4] is given as “suppressed”.

For the compound `Oc1cc(O)c2c(c1)O[C@@H](c1ccc(O)c(O)c1)[C@H](O)C2` [(−)-Catechin], in data set [1] (setting [15]), the CC50 at 48 h was over 100 µM; the viability at 48 h, 4 µM is 97 ± 2.5%; the viability at 48 h, 20 µM turned out to be 97 ± 3.3%; the viability at 48 h, 100 µM was found to be 89 ± 5.9%. For the same compound, the “Cytotoxicity (in words)” value in [5] is on record as “Marginal cytotoxicity”. In addition, in data set [3] (4 µM), the “IR (%) inhibition rate” value is recorded as −6.4 ± 2.0%. Also, in data set [3] (20 µM), the “IR (%) inhibition rate” value was 40 ± 2.1%. In [3] (20 µM, listed as (−)-catechin), the “IR (%) inhibition rate” value was 40–65%. The “IR (%) inhibition rate” value in [3] (100 µM) is 65 ± 0.8%. Also, in [3], the “Suppression” value is “suppressive only at a high concentration” and the IC50 was determined as 69.2 µM.

With `CC(C)=CCC/C(C)=C/COc1c2ccoc2cc2oc(=O)ccc12` [Bergamottin], in data set [1] (setting [15]), the CC50 at 48 h was over 100 µM; the viability at 48 h, 4 µM was 93%; the viability at 48 h, 20 µM worked out at 79%; the viability at 48 h, 100 µM is 59 ± 2.1%. The Skin tumors entry in [6] is reported as “reduced”. Also, in data set [3] (4 µM), the “IR (%) inhibition rate” value is on record as 8.6 ± 4.2%. In addition, the “IR (%) inhibition rate” value in [3] (20 µM) was 74 ± 8.2%. Moreover, in [3] (20 µM, listed as bergamottin), the “IR (%) inhibition rate” value is reported as 74%. Besides, in data set [3], the “Suppression” value is given as “significant activity” and the IC50 came out at 14.2 µM. For the same compound, the “Inhibition of CYP1A1” value in data set [7] is reported as “inhibit”. In data set [8], the NO generation result was “reduced”. Further, the “Formation of DNA adducts” value in data set [9] is recorded as “reduced”. In [10], the Leukemia differentiation result is “induced”. Further, the “Inhibition of cytochrome P450 (CYP) 3A4” value in data set [11] is given as “inhibit”.

In turn, `O=c1c(-c2ccc(O)cc2)coc2cc(O)cc(O)c12` [Genistein] yielded a CC50 at 48 h in [1] of over 100 µM. For the same compound, in data set [1] (setting [15]), the viability at 48 h, 4 µM is 100 ± 0.4%; the viability at 48 h, 20 µM stood at 84 ± 1.5%; the viability at 48 h, 100 µM amounted to 55 ± 4.6%. Besides, the “IR (%) inhibition rate” value in [3] (4 µM) came out at 8.6 ± 7.8%. In data set [3] (20 µM), the “IR (%) inhibition rate” value was determined as 49 ± 7.2%. The “IR (%) inhibition rate” value in data set [3] (20 µM, listed as genistein) is on record as 40–65%. Further, the IC50 in [3] was determined as 20.5 µM. Moreover, the NF-κB activation entry in data set [12] is “decreased”.

Take `O=c1c(O)c(-c2ccc(O)c(O)c2)oc2cc(O)cc(O)c12` [Quercetin]: the CC50 at 48 h in data set [1] was over 100 µM. For the same compound, in data set [1] (setting [15]), the viability at 48 h, 4 µM is 100 ± 3%; the viability at 48 h, 20 µM came to 100 ± 3%; the viability at 48 h, 100 µM is 51 ± 0.5%. Moreover, the NF-κB inhibition entry in data set [13] is “markedly inhibit”. The “N-methyl-N’-nitro-N-nitrosoguanidine-induced inflammation” value in data set [14] is “reduced”. Besides, the “IR (%) inhibition rate” value in data set [3] (4 µM) was found to be 3.7 ± 0.0%. Also, the “IR (%) inhibition rate” value in data set [3] (20 µM) was found to be 51 ± 4.7%. In addition, the “IR (%) inhibition rate” value in data set [3] (20 µM, listed as quercetin) is recorded as 40–65%. In addition, the IC50 in [3] was determined as 19.8 µM.
